# Results taken from ChEMBL document CHEMBL4190335, “Design of KDM4 Inhibitors with Antiproliferative Effects in Cancer Models” (ACS Med Chem Lett, 2017).
# Active and inactive are the calls of the source. The rule behind the calls is not given here.
# What was measured:
# [1] = target: T1, Lysine-specific demethylase 4C (Homo sapiens, UniProt Q9H3R0); experiment: Inhibition of KDM4C (unknown origin) using biotinylated H3K9me3 peptide and alpha-ketoglutarate as substrate pretreated for 1 hr followed by substrate addition measured after 20 mins in presence of 0.2 mg/ml BSA by LANCE TR-FRET assay
# T1 sequence (Q9H3R0 whole entry): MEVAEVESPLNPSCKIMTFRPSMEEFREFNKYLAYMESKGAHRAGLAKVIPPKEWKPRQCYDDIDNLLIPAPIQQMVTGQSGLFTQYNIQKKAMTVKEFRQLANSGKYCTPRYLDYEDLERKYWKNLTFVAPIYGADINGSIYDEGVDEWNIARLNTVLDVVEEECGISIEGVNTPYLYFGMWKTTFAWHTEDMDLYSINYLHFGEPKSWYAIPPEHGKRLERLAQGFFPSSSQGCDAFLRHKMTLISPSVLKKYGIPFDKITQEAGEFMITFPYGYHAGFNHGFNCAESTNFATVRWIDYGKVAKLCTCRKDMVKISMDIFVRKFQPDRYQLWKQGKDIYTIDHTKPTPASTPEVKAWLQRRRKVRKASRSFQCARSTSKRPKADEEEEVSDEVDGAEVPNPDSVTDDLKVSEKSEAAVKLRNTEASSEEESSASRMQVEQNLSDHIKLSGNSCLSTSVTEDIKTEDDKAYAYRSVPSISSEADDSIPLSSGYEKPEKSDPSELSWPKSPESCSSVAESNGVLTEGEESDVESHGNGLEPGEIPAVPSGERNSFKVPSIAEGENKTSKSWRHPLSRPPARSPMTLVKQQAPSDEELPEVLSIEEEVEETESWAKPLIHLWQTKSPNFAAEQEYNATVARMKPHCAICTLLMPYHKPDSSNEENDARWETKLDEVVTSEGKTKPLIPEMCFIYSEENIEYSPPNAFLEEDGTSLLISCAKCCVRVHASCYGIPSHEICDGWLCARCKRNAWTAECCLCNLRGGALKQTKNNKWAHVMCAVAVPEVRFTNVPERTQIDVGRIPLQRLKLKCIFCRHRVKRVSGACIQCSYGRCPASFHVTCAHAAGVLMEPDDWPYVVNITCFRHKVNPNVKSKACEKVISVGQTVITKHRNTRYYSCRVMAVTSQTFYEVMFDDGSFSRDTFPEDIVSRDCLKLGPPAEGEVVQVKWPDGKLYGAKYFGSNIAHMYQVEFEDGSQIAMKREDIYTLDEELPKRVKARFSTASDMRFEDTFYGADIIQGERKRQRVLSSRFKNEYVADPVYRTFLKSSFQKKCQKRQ
# [2] = target: T1, Lysine-specific demethylase 4C; experiment: Inhibition of full-length KDM4C (unknown origin) expressed in human KYSE-150 cells assessed as increase in H3K36me3 level after 24 hrs by HTRF assay
# KYSE-150 cell line = experiment: cells; conditions: Homo sapiens, KYSE-150, 168 h
# Description: Antiproliferative activity against human KYSE-150 cells after 168 hrs by 5-bromo-2'-deoxyuridine thymidine incorporation assay
# [3] = target: T2, Lysine-specific demethylase 4C (Homo sapiens) (UniProt Q9H3R0); experiment: Inhibition of full-length KDM4C (unknown origin) expressed in human KYSE-150 cells assessed as increase in H3K36me3 level after 24 hrs by HTRF assay
# T2 sequence (whole entry): T1 sequence (Q9H3R0 whole entry)
# [4] = Permeability of the compound by PAMPA; assay type: ADME; conditions: read-out: permeability
# [5] = target: Lysine-specific histone demethylase 1A (Homo sapiens) (UniProt O60341); experiment: Inhibition of KDM1 in human KYSE-150 cells assessed as increase in H3K4me2 level at higher concentration after 24 hrs by UHPLC-MS/MS analysis; assay type: cell-based
# IMR-90 = experiment: Cytotoxicity against human IMR90 cells; assay type: cell-based
# Homo sapiens [6] = organism: Homo sapiens; experiment: Inhibition of KDM6 in human KYSE-150 cells assessed as increase in H3K27me3 level at higher concentration after 24 to 96 hrs by UHPLC-MS/MS analysis; assay type: cell-based
# Homo sapiens [7] = organism: Homo sapiens; experiment: Inhibition of KDM5 in human KYSE-150 cells assessed as increase in H3K4me3 level at higher concentration after 24 hrs by UHPLC-MS/MS analysis; assay type: cell-based
# [8] = target: Lysine-specific demethylase 3B (Homo sapiens, UniProt Q7LBC6); experiment: Inhibition of KDM3B (unknown origin) using biotinylated H3K9me1 peptide and alpha-ketoglutarate as substrate measured after 20 mins by LANCE TR-FRET assay
# Lysine-specific demethylase 3B, sequence (Q7LBC6 whole entry): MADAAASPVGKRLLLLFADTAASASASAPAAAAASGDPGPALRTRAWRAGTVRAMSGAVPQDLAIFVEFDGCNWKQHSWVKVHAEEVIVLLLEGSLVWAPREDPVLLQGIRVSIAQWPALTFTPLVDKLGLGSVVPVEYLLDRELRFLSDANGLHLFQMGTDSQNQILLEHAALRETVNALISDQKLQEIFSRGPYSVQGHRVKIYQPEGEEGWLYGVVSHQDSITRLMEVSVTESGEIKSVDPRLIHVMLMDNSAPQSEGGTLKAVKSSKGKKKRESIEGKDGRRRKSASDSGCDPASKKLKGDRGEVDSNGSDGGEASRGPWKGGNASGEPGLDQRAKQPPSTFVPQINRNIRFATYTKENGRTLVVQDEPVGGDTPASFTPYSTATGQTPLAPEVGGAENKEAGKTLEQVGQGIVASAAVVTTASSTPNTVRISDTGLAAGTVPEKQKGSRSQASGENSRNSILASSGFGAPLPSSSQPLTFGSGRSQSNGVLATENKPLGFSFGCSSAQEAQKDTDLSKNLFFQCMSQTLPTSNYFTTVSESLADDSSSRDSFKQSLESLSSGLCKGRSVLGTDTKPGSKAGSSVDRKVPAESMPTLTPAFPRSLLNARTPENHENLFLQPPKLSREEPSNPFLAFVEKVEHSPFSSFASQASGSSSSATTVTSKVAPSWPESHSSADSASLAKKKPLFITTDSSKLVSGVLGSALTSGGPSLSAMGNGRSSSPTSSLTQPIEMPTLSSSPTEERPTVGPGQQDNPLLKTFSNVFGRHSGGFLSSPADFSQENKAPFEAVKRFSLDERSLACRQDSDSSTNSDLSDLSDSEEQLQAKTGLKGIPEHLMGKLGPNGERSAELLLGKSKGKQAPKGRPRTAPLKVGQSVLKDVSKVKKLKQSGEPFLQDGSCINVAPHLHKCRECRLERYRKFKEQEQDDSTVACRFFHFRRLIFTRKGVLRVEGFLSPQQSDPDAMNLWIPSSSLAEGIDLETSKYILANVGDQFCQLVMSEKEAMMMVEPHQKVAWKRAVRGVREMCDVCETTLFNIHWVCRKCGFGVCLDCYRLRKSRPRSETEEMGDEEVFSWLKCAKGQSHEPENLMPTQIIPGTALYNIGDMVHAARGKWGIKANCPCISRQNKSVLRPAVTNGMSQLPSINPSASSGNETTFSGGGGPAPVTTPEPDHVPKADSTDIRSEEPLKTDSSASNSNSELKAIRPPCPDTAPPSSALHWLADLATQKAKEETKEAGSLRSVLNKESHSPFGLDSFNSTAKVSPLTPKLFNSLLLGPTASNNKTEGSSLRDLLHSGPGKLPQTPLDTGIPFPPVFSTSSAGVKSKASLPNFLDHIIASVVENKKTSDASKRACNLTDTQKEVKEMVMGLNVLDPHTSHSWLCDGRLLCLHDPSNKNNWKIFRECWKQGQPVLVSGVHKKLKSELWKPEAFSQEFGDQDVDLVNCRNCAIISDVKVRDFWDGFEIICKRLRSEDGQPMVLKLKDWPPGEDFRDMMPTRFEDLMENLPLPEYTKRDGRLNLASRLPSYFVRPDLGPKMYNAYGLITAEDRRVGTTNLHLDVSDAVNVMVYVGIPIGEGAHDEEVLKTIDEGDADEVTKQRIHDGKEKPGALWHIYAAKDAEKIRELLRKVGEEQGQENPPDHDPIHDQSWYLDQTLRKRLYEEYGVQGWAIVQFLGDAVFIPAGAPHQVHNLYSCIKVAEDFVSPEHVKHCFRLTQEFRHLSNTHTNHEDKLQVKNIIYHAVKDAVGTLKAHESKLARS
# [9] = target: Lysine-specific demethylase 6B (Homo sapiens, UniProt O15054); experiment: Inhibition of KDM6B (unknown origin) using biotinylated H3K27me3 peptide and alpha-ketoglutarate as substrate pretreated for 1 hr followed by substrate addition measured after 20 mins by LANCE TR-FRET assay
# Lysine-specific demethylase 6B, sequence (O15054 whole entry): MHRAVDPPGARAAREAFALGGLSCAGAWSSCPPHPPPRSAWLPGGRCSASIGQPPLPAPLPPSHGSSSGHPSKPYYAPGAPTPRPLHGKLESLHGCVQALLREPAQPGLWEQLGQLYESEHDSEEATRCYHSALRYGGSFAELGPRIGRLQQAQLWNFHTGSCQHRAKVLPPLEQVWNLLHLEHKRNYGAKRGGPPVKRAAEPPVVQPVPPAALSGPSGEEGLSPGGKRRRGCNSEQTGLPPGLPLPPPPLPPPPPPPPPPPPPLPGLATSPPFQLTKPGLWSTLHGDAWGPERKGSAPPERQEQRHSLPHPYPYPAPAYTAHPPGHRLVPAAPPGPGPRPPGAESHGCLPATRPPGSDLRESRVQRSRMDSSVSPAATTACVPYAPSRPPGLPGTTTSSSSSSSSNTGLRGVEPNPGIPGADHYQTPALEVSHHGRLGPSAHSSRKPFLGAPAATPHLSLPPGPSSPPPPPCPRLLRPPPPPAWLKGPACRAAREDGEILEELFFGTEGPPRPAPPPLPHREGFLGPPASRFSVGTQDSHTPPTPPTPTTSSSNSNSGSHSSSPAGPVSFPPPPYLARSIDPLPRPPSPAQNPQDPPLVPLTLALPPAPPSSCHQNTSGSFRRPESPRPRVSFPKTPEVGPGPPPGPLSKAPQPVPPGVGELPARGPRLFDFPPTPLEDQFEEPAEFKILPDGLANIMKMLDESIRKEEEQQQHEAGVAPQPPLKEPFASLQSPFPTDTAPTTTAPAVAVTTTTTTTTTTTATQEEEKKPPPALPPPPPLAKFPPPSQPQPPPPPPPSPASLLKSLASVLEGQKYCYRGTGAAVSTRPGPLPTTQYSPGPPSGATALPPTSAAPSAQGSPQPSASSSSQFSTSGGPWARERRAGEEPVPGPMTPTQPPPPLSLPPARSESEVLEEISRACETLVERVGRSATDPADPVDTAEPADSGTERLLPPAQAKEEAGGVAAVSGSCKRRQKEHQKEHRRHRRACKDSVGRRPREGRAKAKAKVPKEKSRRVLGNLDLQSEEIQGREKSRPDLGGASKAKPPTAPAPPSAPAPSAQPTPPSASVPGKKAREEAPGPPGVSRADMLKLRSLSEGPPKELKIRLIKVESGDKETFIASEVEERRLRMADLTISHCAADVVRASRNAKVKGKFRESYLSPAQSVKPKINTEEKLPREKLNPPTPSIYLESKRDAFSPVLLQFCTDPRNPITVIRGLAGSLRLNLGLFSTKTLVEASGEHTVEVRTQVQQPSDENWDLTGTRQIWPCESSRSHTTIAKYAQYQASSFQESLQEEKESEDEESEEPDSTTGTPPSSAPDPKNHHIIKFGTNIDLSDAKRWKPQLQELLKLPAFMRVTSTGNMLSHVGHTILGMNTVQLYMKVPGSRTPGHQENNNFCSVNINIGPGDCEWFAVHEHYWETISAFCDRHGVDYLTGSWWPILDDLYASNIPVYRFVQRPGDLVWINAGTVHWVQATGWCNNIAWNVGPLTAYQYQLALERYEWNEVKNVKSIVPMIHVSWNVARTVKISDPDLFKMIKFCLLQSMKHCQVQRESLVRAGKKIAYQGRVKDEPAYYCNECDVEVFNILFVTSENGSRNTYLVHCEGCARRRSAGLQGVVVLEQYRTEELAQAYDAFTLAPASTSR
# [10] = target: Histone lysine demethylase PHF8 (Homo sapiens, UniProt Q9UPP1); experiment: Inhibition of PHF8 (unknown origin) using biotinylated H3K9me1 peptide and alpha-ketoglutarate as substrate measured after 20 mins by LANCE TR-FRET assay
# Histone lysine demethylase PHF8, sequence (Q9UPP1 whole entry): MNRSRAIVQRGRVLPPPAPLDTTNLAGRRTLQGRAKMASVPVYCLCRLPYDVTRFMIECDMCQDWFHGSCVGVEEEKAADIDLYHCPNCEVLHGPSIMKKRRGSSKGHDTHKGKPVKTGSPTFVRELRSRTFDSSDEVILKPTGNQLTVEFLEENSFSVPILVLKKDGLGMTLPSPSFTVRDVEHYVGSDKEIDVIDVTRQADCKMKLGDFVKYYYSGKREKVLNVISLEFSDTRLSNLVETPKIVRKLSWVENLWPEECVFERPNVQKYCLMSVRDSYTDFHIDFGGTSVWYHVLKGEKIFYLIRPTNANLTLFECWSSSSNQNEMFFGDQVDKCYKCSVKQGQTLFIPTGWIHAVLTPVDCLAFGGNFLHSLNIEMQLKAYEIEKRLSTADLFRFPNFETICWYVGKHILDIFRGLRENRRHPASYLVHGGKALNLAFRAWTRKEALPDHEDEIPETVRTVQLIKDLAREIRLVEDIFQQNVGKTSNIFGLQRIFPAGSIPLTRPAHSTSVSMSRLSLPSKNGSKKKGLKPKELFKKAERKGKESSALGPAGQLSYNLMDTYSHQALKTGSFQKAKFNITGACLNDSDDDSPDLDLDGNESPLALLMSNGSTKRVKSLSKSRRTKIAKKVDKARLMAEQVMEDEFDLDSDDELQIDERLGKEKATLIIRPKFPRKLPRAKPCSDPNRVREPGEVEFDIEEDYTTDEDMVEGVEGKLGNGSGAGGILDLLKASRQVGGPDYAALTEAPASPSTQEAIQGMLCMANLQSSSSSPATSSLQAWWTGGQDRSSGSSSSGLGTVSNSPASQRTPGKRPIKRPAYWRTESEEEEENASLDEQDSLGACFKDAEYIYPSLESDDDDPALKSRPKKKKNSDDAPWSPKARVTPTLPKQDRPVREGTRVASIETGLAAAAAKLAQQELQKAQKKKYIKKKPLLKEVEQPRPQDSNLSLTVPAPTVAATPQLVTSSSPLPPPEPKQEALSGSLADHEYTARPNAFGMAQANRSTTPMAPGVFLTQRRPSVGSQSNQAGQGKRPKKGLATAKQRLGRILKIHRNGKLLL
# [11] = Volume of distribution in CD-1 mouse at 5 mg/kg, iv; assay type: ADME, organism-based; conditions: in vivo
# [12] = target: T3, Lysine-specific demethylase 3A (Homo sapiens, UniProt Q9Y4C1); experiment: Inhibition of KDM3A (unknown origin) using biotinylated H3K9me1 peptide and alpha-ketoglutarate as substrate measured after 20 mins by LANCE TR-FRET assay
# T3 sequence (Q9Y4C1 whole entry): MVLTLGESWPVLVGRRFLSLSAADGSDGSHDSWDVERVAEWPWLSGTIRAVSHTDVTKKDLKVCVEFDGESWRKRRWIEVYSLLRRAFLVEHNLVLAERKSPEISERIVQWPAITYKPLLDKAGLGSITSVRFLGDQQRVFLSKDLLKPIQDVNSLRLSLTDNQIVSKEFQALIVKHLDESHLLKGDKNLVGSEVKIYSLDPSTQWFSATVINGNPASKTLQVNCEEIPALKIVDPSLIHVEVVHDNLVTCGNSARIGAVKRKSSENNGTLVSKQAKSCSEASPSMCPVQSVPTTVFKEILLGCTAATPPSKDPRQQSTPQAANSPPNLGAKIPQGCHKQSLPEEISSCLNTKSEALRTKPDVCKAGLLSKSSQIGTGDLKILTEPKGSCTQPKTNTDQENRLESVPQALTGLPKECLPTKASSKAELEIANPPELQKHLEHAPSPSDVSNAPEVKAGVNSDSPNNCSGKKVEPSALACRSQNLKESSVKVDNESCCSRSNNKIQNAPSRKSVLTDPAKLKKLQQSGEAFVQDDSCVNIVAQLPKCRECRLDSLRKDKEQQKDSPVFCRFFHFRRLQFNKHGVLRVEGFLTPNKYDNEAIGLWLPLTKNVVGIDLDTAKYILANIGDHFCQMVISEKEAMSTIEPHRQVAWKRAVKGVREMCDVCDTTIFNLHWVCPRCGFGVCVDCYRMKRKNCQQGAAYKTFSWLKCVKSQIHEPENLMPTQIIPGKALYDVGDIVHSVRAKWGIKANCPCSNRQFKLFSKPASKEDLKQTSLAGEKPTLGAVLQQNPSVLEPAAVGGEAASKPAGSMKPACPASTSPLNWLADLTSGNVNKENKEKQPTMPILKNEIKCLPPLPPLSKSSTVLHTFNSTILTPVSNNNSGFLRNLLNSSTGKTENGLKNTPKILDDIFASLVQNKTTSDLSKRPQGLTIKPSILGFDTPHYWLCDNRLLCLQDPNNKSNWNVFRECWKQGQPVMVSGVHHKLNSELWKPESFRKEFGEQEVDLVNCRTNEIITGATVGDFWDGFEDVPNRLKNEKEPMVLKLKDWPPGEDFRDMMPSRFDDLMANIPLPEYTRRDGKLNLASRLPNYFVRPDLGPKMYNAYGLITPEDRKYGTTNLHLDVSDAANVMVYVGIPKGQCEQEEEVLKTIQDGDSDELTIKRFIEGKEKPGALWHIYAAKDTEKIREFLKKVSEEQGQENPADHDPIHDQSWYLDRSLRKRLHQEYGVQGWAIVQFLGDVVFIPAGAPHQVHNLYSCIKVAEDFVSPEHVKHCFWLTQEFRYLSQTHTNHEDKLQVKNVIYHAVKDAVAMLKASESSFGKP
# [13] = Systemic clearance in CD-1 mouse at 5 mg/kg, iv; assay type: ADME, organism-based; conditions: in vivo
# [14] = target: T4, Lysine-specific demethylase 2B (Homo sapiens, UniProt Q8NHM5); experiment: Inhibition of KDM2B (unknown origin) using biotinylated H3K36me2 peptide and alpha-ketoglutarate as substrate pretreated for 1 hr followed by substrate addition measured after 20 mins by LANCE TR-FRET assay
# T4 sequence (Q8NHM5 whole entry): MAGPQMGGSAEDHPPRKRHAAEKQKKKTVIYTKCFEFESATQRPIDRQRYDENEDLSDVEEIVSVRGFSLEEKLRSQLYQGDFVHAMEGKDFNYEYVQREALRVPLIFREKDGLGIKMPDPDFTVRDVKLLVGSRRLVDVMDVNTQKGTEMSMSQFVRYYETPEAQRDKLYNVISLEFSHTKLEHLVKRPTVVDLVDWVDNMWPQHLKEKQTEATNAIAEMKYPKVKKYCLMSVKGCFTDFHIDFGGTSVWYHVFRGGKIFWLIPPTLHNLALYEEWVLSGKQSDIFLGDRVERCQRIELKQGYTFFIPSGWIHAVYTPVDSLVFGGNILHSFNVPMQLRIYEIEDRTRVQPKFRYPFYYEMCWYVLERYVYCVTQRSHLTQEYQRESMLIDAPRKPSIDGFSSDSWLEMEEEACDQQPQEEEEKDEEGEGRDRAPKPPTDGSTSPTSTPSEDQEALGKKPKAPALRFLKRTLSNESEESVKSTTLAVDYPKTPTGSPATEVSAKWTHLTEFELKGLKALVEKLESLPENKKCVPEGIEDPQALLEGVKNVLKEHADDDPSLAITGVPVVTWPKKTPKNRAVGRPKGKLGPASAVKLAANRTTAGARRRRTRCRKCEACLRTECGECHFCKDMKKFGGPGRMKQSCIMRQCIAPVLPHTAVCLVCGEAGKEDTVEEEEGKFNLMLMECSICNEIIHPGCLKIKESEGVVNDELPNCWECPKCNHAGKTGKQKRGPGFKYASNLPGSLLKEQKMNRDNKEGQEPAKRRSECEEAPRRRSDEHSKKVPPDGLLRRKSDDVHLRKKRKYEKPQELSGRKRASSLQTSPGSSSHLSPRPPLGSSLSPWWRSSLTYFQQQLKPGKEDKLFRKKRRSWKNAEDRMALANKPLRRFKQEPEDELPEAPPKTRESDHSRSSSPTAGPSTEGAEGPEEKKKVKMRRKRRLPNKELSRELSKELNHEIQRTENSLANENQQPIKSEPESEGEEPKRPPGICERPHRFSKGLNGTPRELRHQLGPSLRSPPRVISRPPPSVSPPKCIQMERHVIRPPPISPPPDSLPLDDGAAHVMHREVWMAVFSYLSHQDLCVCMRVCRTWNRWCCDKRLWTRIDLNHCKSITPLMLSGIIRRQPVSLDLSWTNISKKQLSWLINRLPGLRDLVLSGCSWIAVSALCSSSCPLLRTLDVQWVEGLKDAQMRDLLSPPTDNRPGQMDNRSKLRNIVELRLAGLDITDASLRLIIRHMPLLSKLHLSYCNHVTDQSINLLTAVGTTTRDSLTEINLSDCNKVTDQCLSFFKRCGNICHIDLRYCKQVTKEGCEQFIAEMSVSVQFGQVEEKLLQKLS
# [15] = target: T1, Lysine-specific demethylase 4C; experiment: Inhibition of KDM4C (unknown origin) using biotinylated H3K9me3 peptide and alpha-ketoglutarate as substrate pretreated for 1 hr followed by substrate addition measured after 20 mins in presence of 0.02 mg/ml BSA by LANCE TR-FRET assay
# [16] = AUC in CD-1 mouse at 10 mg/kg, po; assay type: ADME, organism-based; conditions: in vivo
# [17] = Oral bioavailability in CD-1 mouse at 10 mg/kg; assay type: ADME, organism-based; conditions: in vivo
smiles,measurement,setting,value
O=C(O)c1ccncc1NC[C@@H]1CCCc2cc(Sc3ccccc3)ccc21,IC50,[1],48 nM
same,EC50,[2],19 nM
O=C(O)c1ccncc1NC[C@H]1CCCc2ccccc21,IC50,[1],> 2000 nM
same,EC50,KYSE-150 cell line,> 100000 nM
same,inhibition,[3],inactive
O=C(O)c1ccncc1NCC1CCCc2ccccc21 (centres undefined),IC50,[1],12 nM
same,EC50,KYSE-150 cell line,6000 nM
COc1ccc2c(c1)CCC[C@H]2CNc1cnccc1C(=O)O,Papp,[4],1.84 ×10⁻⁶ cm/s
same,IC50,[1],6 nM
same,inhibition,[5],Below limit of detection
same,EC50,IMR-90,> 30000 nM
same,inhibition,Homo sapiens [6],Active
same,inhibition,Homo sapiens [7],Below limit of detection
same,EC50,KYSE-150 cell line,830 nM
same,EC50,[2],560 nM
same,inhibition,[3],Dose-dependent effect
CN(c1ccccc1)c1ccc2c(c1)CCC[C@H]2CNc1cnccc1C(=O)O,IC50,[8],> 4000 nM
same,IC50,[9],> 4000 nM
same,IC50,[10],> 4000 nM
same,Vd,[11],0.675 L/kg
same,IC50,[12],> 4000 nM
same,clearance,[13],6.9 mL/min/kg
same,IC50,[14],> 4000 nM
same,IC50,[15],9 nM
same,AUC,[16],10400 ng·h/mL
same,bioavailability,[17],30%
same,EC50,[2],1.3 nM
O=C(O)c1ccncc1NC[C@@H]1CCCc2ccccc21,IC50,[1],8 nM
same,EC50,KYSE-150 cell line,4000 nM
